Reference: US20130204033A1, “ANTIPROLIFERATIVE COMPOUNDS, CONJUGATES THEREOF, METHODS THEREFOR, AND USES THEREOF” (Medarex, Inc., priority 2009, published 2013)
Where two headings read alike, the source gives them in different places.

Columns and labels:
Type in all cases: cell-based, human
[1] = test system: SKOV3; test: ATP luminescence proliferation assay, SKOV3
Method: (§1) This example generally describes the procedures used to assay the antiproliferative activity of compounds of this invention or their conjugates. Human tumor cell lines were obtained from the American Type Culture Collection (ATCC), P.O. Box 1549, Manassas, Va. 20108, USA, and cultured according to instruction from the ATCC. Cells were seeded at 1.0×10^3 or 1.0×10^4 cells/well in 96-well plates for 3 h for ATP assays or ^3H thymidine assays, respectively. 1:3 serial dilutions of free (unconjugated) compounds or their conjugates were added to the wells. Plates were allowed to incubate for 24 to 72 h. The ^3H thymidine plates were pulsed with 1.0 μCi of ^3H-thymidine per well for the last 24 hours of the total incubation period, harvested, and read on a Top Count Scintillation Counter (Packard Instruments, Meriden, Conn.). ATP levels in the ATP plates were measured using the […]-GLO® Luminescent Cell Viability kit following the manufacturer's manual and read on a GLOMAX® 20/20 luminometer (both from Promega, Madison, Wis., USA). The EC50 values—the concentration at which an agent inhibits or reduces cell proliferation by 50% —were determined using PRISM™ software, version 4.0 (GraphPad Software, La Jolla, Calif., USA).
(§2) Using the ^3H thymidine or the ATP luminescence assay, or both, the activities of compounds of this invention were assayed against the following cancer cell lines: HCT-15 (colorectal cancer, multi-drug resistant (MDR)); Hep3B (liver cancer); LNCaP (prostate cancer, androgen receptor positive (AR^+)); MDA-MB-231 (breast cancer, estrogen receptor, progesterone receptor, and Her2 negative (triple negative)); A2058 (melanoma); U-87 MG (glioblastoma); NCI-H460 (NSCLC); A549 (NSCLC); HPAC (pancreatic cancer, primary); PC3 (prostate cancer, AR); BT474 (breast cancer, Her2 highly positive (Her2hi)); SKOV3 (ovarian cancer, Her2hi); 786-O (renal cancer); UO-31 (renal cancer, MDR); NCI-H740 (SCLC); DMS53 (SCLC); SK-BR3 (breast cancer, Her2hi); ZR-75 (breast cancer, estrogen receptor positive); OVCAR3 (ovarian cancer); HL-60 (APL); OVCAR8/Adr (ovarian cancer, MDR); CEM-Cl (ALL); Nomo-1 (AML); RPMI-8226 (MM)); Raji (lymphoma); SW-480 (colorectal cancer, metastatic); SW-620 (colorectal cancer); and H226 (lung cancer). (Not all compounds were assayed against all cell lines.)
(§3) Table 3 provides the data for the ATP luminescence proliferation assays, with an incubation period of 48, 72, or 96 h, as noted.

[2] = test system: Nomo-1; test: 3H thymidine proliferation assay, Nomo-1
Method: as §1, §2
(§4) Table 2 provides the data for proliferation assays using the ^3H thymidine method, with an incubation period of 72 h.

[3] = test system: DMS53; test: ATP luminescence proliferation assay, DMS53
Method: as §1, §2, §3

[4] = test system: BT474; test: 3H thymidine proliferation assay, BT474
Method: as §1, §2, §4

[5] = test system: NCI-H460; test: ATP luminescence proliferation assay, NCI-H460
Method: as §1, §2, §3

[6] = test system: SK-BR3; test: 3H thymidine proliferation assay, SK-BR3; settings: 3H thymidine method, 72 h incubation
Method: as §1, §2, §4

[7] = test system: Nomo-1; test: ATP luminescence proliferation assay, Nomo-1
Method: as §1, §2, §3

[8] = test system: A2058; test: 3H thymidine proliferation assay, A2058; settings: 3H thymidine method, 72 h incubation
Method: as §1, §2, §4

[9] = test system: HPAC; test: 3H thymidine proliferation assay, HPAC
Method: as §1, §2, §4

[10] = test system: Hep3B; test: ATP luminescence proliferation assay, Hep3B
Method: as §1, §2, §3

[11] = test system: PC3; test: 3H thymidine proliferation assay, PC3
Method: as §1, §2, §4

[12] = test system: OVCAR3; test: 3H thymidine proliferation assay, OVCAR3
Method: as §1, §2, §4

[13] = test system: HL-60; test: 3H thymidine proliferation assay, HL-60
Method: as §1, §2, §4

[14] = test system: H740; test: 3H thymidine proliferation assay, H740
Method: as §1, §2, §4

[15] = test system: BT474; test: ATP luminescence proliferation assay, BT474
Method: as §1, §2, §3

[16] = test system: DMS53; test: 3H thymidine proliferation assay, DMS53
Method: as §1, §2, §4

[17] = test system: OVCAR8; test: 3H thymidine proliferation assay, OVCAR8
Method: as §1, §2, §4

[18] = test system: Raji; test: 3H thymidine proliferation assay, Raji
Method: as §1, §2, §4

[19] = test system: CEM-Cl; test: ATP luminescence proliferation assay, CEM-C1
Method: as §1, §2, §3

[20] = test system: 786-O; test: 3H thymidine proliferation assay, 786-O
Method: as §1, §2, §4

[21] = Homo sapiens, SK-OV-3, 48 h, read-out: EC50 SKOV3 (48 h), ATP luminescence, SKOV3, 48 h incubation
[22] = Homo sapiens, NOMO-1, read-out: EC50, Nomo-1, 3H thymidine method, 72 h incubation
[23] = Homo sapiens, DMS-53, 48 h, read-out: EC50 DMS53 (48 h), ATP luminescence, DMS53, 48 h incubation
[24] = Homo sapiens, BT-474, read-out: EC50, BT474, 3H thymidine method, 72 h incubation
[25] = Homo sapiens, NCI-H460, 48 h, read-out: EC50 NCI-H460 (48 h), ATP luminescence, NCI-H460, 48 h incubation
[26] = Homo sapiens, NOMO-1, 72 h, read-out: EC50 Nomo-1 (72 h), ATP luminescence, Nomo-1, 72 h incubation
[27] = Homo sapiens, HPAC, read-out: EC50, HPAC, 3H thymidine method, 72 h incubation
[28] = Homo sapiens, 48 h, read-out: EC50 Hep3B (48 h), ATP luminescence, Hep3B, 48 h incubation
[29] = Homo sapiens, PC-3, read-out: EC50, PC3, 3H thymidine method, 72 h incubation
[30] = Homo sapiens, OVCAR-3, read-out: EC50, OVCAR3, 3H thymidine method, 72 h incubation
[31] = Homo sapiens, HL-60, read-out: EC50, HL-60, 3H thymidine method, 72 h incubation
[32] = Homo sapiens, read-out: EC50, H740, 3H thymidine method, 72 h incubation
[33] = Homo sapiens, BT-474, 48 h, read-out: EC50 BT474 (48 h), ATP luminescence, BT474, 48 h incubation
[34] = Homo sapiens, DMS-53, read-out: EC50, DMS53, 3H thymidine method, 72 h incubation
[35] = Homo sapiens, OVCAR-8, read-out: EC50, OVCAR8, 3H thymidine method, 72 h incubation
[36] = Homo sapiens, Raji, read-out: EC50, Raji, 3H thymidine method, 72 h incubation
[37] = Homo sapiens, CEM/C1, 72 h, read-out: EC50 CEM-C1 (72 h), ATP luminescence, CEM-C1, 72 h incubation
[38] = ATP luminescence, SKOV3, 48 h incubation, read-out: EC50 SKOV3 (48 h)
[39] = 3H thymidine method, 72 h incubation, read-out: EC50, Nomo-1
[40] = ATP luminescence, DMS53, 48 h incubation, read-out: EC50 DMS53 (48 h)
[41] = 3H thymidine method, 72 h incubation, read-out: EC50, BT474
[42] = ATP luminescence, NCI-H460, 48 h incubation, read-out: EC50 NCI-H460 (48 h)
[43] = ATP luminescence, Nomo-1, 72 h incubation, read-out: EC50 Nomo-1 (72 h)
[44] = 3H thymidine method, 72 h incubation, read-out: EC50, HPAC
[45] = 3H thymidine method, 72 h incubation, read-out: EC50, 786-O
[46] = 3H thymidine method, 72 h incubation, read-out: EC50, PC3
[47] = 3H thymidine method, 72 h incubation, read-out: EC50, OVCAR3
[48] = 3H thymidine method, 72 h incubation, read-out: EC50, HL-60
[49] = 3H thymidine method, 72 h incubation, read-out: EC50, H740
[50] = ATP luminescence, BT474, 48 h incubation, read-out: EC50 BT474 (48 h)
[51] = 3H thymidine method, 72 h incubation, read-out: EC50, DMS53
[52] = 3H thymidine method, 72 h incubation, read-out: EC50, OVCAR8
[53] = 3H thymidine method, 72 h incubation, read-out: EC50, Raji
[54] = ATP luminescence, CEM-C1, 72 h incubation, read-out: EC50 CEM-C1 (72 h)
[55] = ATP luminescence, 48 h incubation, read-out: EC50 Hep3B (48 h)

Row | Structure (SMILES) | EC50 [1, 21] [nM] | EC50 [2, 22] [nM] | EC50 [3, 23] [nM] | EC50 [4, 24] [nM] | EC50 [5, 25] [nM] | EC50 ([6]; Homo sapiens, SK-BR-3) [nM] | EC50 [1, 38] [nM] | EC50 [2, 39] [nM] | EC50 [4, 41] [nM] | EC50 [7, 43] [nM] | EC50 [9, 44] [nM] | EC50 [20, 45] [nM] | EC50 [11, 46] [nM] | EC50 [12, 47] [nM] | EC50 [13, 48] [nM] | EC50 [14, 49] [nM] | EC50 [16, 51] [nM] | EC50 [17, 52] [nM] | EC50 [18, 53] [nM] | EC50 [19, 54] [nM] | other results
1 | CC[C@H](C)[C@H](NC(=O)[C@H]1CCCCN1C)C(=O)N(C)[C@H](C[C@@H](OC)c1nc(C(=O)NC(Cc2ccccc2)C[C@H](C)C(=O)O)cs1)C(C)C (stereo partly drawn) [Compound 15] | 4.2 | 2.3 | 32 | 7.1 | 6.7 | 17 |  |  |  |  |  |  |  |  |  |  |  |  |  |  | EC50 [7, 26]: 2.7 nM; EC50 ([8]; Homo sapiens, A2058): 1.6 nM; EC50 [9, 27]: 3 nM; EC50 [10, 28]: 6.3 nM; EC50 [11, 29]: 1.7 nM; EC50 [12, 30]: > 100 nM; EC50 [13, 31]: 0.6 nM; EC50 [14, 32]: 2.3 nM; EC50 [15, 33]: 3.5 nM; EC50 [16, 34]: 37 nM; EC50 [17, 35]: 423 nM; EC50 [18, 36]: 0.47 nM; EC50 [19, 37]: 2.6 nM
2 | CC[C@H](C)[C@H](NC(=O)[C@H]1CCCCN1C)C(=O)N(C)[C@H](C[C@@H](OC)c1nc(C(=O)N[C@@H](Cc2ccccc2)C(=O)OC)cs1)C(C)C [Compound 16] |  |  |  |  |  |  | 18 | 1.8 | > 100 | 3.1 | > 100 | 19 | > 100 | > 100 | 8.9 | > 100 | > 100 | 1870 | 28 | 2.5 | EC50 [3, 40]: 50 nM; EC50 [5, 42]: 69 nM; EC50 [6]: > 100 nM; EC50 [8]: > 100 nM; EC50 [15, 50]: 19 nM
3 | CCCC(NC(=O)c1csc([C@@H](C[C@H](C(C)C)N(C)C(=O)[C@@H](NC(=O)[C@H]2CCCCN2C)[C@@H](C)CC)OC)n1)C(=O)OC (stereo partly drawn) [Compound 17] | 58 | 6.8 | ~80 | > 100 | 69 | > 100 |  |  |  |  |  |  |  |  |  |  |  |  |  |  | EC50 [7, 26]: 3.9 nM; EC50 ([8]; Homo sapiens, A2058): > 100 nM; EC50 [9, 27]: > 100 nM; EC50 [10, 28]: > 100 nM; EC50 ([20]; Homo sapiens, 786-0, read-out: EC50, 786-O, 3H thymidine method, 72 h incubation): 32 nM; EC50 [11, 29]: 82 nM; EC50 [12, 30]: > 100 nM; EC50 [13, 31]: 17 nM; EC50 [14, 32]: 32 nM; EC50 [15, 33]: 23 nM; EC50 [16, 34]: > 100 nM; EC50 [17, 35]: 2970 nM; EC50 [18, 36]: 53 nM; EC50 [19, 37]: 26 nM
4 | CC[C@H](C)[C@H](NC(=O)[C@H]1CCCCN1C)C(=O)N(C)[C@H](C[C@@H](OC(C)=O)c1nc(C(=O)N[C@@H](Cc2ccc(N)cc2)C(=O)O)cs1)C(C)C [Compound 56] |  |  |  |  |  |  | > 100 | > 100 | > 100 | > 100 | > 100 | 29 | > 100 | > 100 | > 100 | > 100 | > 100 | > 3000 | > 100 | > 100 | EC50 [3, 40]: > 100 nM; EC50 [5, 42]: > 100 nM; EC50 [6]: > 100 nM; EC50 [8]: > 100 nM; EC50 [10, 55]: > 100 nM; EC50 [15, 50]: > 100 nM
5 | CC[C@H](C)[C@H](NC(=O)[C@H]1CCCCN1C)C(=O)N(COC(=O)CC(C)C)[C@H](C[C@@H](OC(C)=O)c1nc(C(=O)N[C@@H](Cc2ccccc2)C[C@H](C)C(=O)O)cs1)C(C)C [Tub D, tubulysin D, reference compound] |  |  |  |  |  |  | 0.029 | 0.042 | 0.51 | 0.013 | 0.015 | 0.15 | 0.038 | 0.051 | 0.032 | 2.2 | 0.21 | 0.17 | 0.013 | 0.003 | EC50 ([3]; ATP luminescence, DMS53, 72 h incubation, read-out: EC50 DMS53 (72 h)): 0.069 nM; EC50 ([5]; ATP luminescence, NCI-H460, 72 h incubation, read-out: EC50 NCI-H460 (72 h)): 0.0076 nM; EC50 [10, 55]: 0.0012 nM; EC50 ([15]; ATP luminescence, BT474, 72 h incubation, read-out: EC50 BT474 (72 h)): 0.021 nM
